Legend:
Type in all cases: cell-based, human
ADAD spheroids [1] = assay: Cell death (TUNEL staining) in ADAD spheroids; conditions: ADAD spheroids at PID28, treatment starting at PID16
Experimental: (§1) β-secretase inhibitor IV (cat #565788), DAPT (cat #D5942), and lamivudine (3TC) (cat #PHR1365) were purchased from Millipore Sigma. To make the stock solution, 5 mM β-secretase inhibitor IV and 40 mM DAPT were dissolved in DMSO and 100 mM 3TC was dissolved in sterile water. For thin gel culture, 2.5 μM β-secretase inhibitor IV, 20 μM DAPT, or 100 μM 3TC was added to the fresh media and used for half media changes starting at PID16 or PID22. For spheroids culture, 5 μM β-secretase inhibitor IV, 40 μM DAPT, or 100 μM 3TC was added to the fresh media and used for half media changes starting at PID16 or PID22.
(§2) For quantification of the total volume of Aβ deposits, volume and area of the spheroid, co-localization analysis in tau related pathologies, and number of TUNEL positive cells or total cells, the “surface” module in Imaris was used for 3D reconstruction and quantification. For measuring the intensity of neurite outgrowth in spheroid, Image J was used by measuring the mean intensity at each region (distal, middle, and proximal).
TUNEL assay: DeadEND Fluorometric TUNEL system kit was purchased from Promega (G3250) and TUNEL assay was performed according to the manufacturer's description. Briefly, the cryosections of neuronal spheroids were permeabilized by 0.2% TritonX-100 in PBS for 5 mins followed by two 5 mins washes in PBS. […]

LOAD spheroids = assay: Aβ deposition by whole mount immunostaining (6E10) in LOAD spheroids; conditions: treatment started at PID22 (after onset of Aβ deposition), examined at PID28
Experimental: as §1
(§3) Whole mount immunofluorescence staining of spheroid: For whole-mount immunostaining of neuronal spheroid, 3D cell culture clearing kit (abcam: ab243299) was used with modifications. Briefly, fixed spheroids on transwell inserts were permeabilized by sequential dehydration and rehydration using different concentrations of ethanol. […]
(§4) For quantification of the total volume of Aβ deposits, volume and area of the spheroid, co-localization analysis in tau related pathologies, and number of TUNEL positive cells or total cells, the “surface” module in Imaris was used for 3D reconstruction and quantification. […]

ADAD spheroids [2] = assay: Aβ deposition by whole mount immunostaining (6E10) in ADAD spheroids; conditions: ADAD spheroids treated from PID16 to 28; 5 μM β-secretase inhibitor IV or 40 μM DAPT; immunostained at PID28
Experimental: as §1, §3, §4

ADAD 3D-CNs = assay: p-tau (AT8) and K63-ubiquitin/p-tau (PHF1) immunostaining in ADAD 3D-CNs; conditions: ADAD 3D-CNs treated with β-secretase inhibitor IV or DAPT
Experimental: as §1
Immunofluorescence staining of thin gel: The fixed thin gel cultures were permeabilized in PBST (0.2% (vol/vol) TritonX-100 in PBS) at room temperature for 1h and blocked with blocking buffer (5% (wt/vol) BSA, 2% (wt/vol) normal goat serum, and 0.2% (vol/vol) TritonX-100) overnight at 4° C. The blocking buffer was removed from thin gel culture plates and primary antibodies diluted in blocking buffer were added to the plate followed by incubation overnight at 4° C. with gentle rocking. After washing 5 times with PBST, the cells were then incubated with secondary antibodies diluted in blocking buffer at room temperature for 3-5 hours or 4° C. overnight. Cells were washed 5 times with PBST, incubated with DAPI (Sigma) for 20 min at room temperature if needed and sealed with a drop of anti-fade prolong gold reagent (Life technology). Plates were sealed with parafilm and stored at 4° C. before imaging. The immunofluorescence images were taken by Leica SP5X white light laser confocal system.
as §2

Compound: β-secretase inhibitor IV
- cell death / neuronal death (ADAD spheroids [1]): reduced
- effect on Aβ deposition (LOAD spheroids): non-significant effect
- Aβ deposition (ADAD spheroids [2]): reduction
- K63-ubiquitin+p-tau (PHF1) level (ADAD 3D-CNs): significant reduction
- p-tau (AT8) level (ADAD 3D-CNs): significant reduction

Compound: C[C@H](NC(=O)Cc1cc(F)cc(F)c1)C(=O)N[C@H](C(=O)OC(C)(C)C)c1ccccc1 [DAPT]
- cell death / neuronal death (ADAD spheroids [1]): reduced
- reduction of Aβ deposition (LOAD spheroids): ~30%
- Aβ deposition (ADAD spheroids [2]): reduction
- K63-ubiquitin+p-tau (PHF1) level (ADAD 3D-CNs): significant reduction
- p-tau (AT8) level (ADAD 3D-CNs): significant reduction
